Our source for the Activity, EC50 and IC50 values is ChEMBL document CHEMBL5150058, “Synthesis and biological evaluation of novel photo-clickable adenosine and cyclic ADP-ribose analogs: 8-N3-2'-O-propargyladenosine and 8-N3-2'-O-propargyl-cADPR” (Bioorg Med Chem, 2022).

Structures are written as SMILES. Activity calls are given as the source filed them. No cut-off for these calls is given here.

The test system of assay [1] is Strongylocentrotus purpuratus. Kind of assay: Agonist activity at cADPR binding protein in sea urchin egg homogenate assessed as increase in Ca2+ release at 100 uM by Fluo-3 based fluorescence assay relative to control. Format: tissue-based.
The nature of assay [2]: Agonist activity at cADPR binding protein in sea urchin egg homogenate assessed as increase in Ca2+ release by Fluo-3 based fluorescence assay. Format: tissue-based, Strongylocentrotus purpuratus.
The test system of the next assay is U2OS. Kind of assay: Agonist activity at cADPR binding protein in human U2OS cells expressing GCaMP6M assessed as increase in Ca2+ release at 30 uM by confocal Ca2+ imaging analysis. The format is cell-based. The note with it: filed as agonist.
Assay [3] is described as follows: Antagonist activity at cADPR binding protein in sea urchin egg homogenate assessed as inhibition of cADPR-induced Ca2+ release by Fluo-3 based fluorescence assay. The format is tissue-based, Strongylocentrotus purpuratus.

Take `C#CCO[C@@H]1[C@H](O)[C@H]2COP(=O)(O)OP(=O)(O)OC[C@H]3O[C@H]([C@H](O)[C@@H]3O)[n+]3cnc4c(nc(N=[N+]=[N-])n4[C@@H]1O2)c3N`: the Activity in assay [1] is less than 10%.

For `Nc1c2ncn3c2nc[n+]1[C@@H]1O[C@H](COP(=O)([O-])OP(=O)(O)OC[C@H]2O[C@@H]3[C@H](O)[C@@H]2O)[C@@H](O)[C@H]1O`, the 50% effective concentration (EC50) (in general, the concentration needed to bring the measured effect to its halfway point) in assay [2] stood at 110 nM. Moreover, the result in the assay with U2OS was Active.

With `[N-]=[N+]=Nc1nc2c(N)[n+]3cnc2n1[C@@H]1O[C@H](COP(=O)(O)OP(=O)(O)OC[C@H]2O[C@@H]3[C@H](O)[C@@H]2O)[C@@H](O)[C@H]1O`, the IC50 (as a rule, the concentration needed to halve the response being measured) in assay [3] came out at 7 nM.

Take `C#CCO[C@@H]1[C@H](O)[C@H]2COP(=O)(O)OP(=O)([O-])OC[C@H]3O[C@H]([C@H](O)[C@@H]3O)[n+]3cnc4c(ncn4[C@@H]1O2)c3N`: in assay [2], the 50% effective concentration (EC50) amounted to 8460 nM.
